Data reported in publication PMC2869246 (Antiviral research, 2010).
Entries after “also recorded” stand apart in the source; their conditions may differ. Read-outs that look alike come from different tables or passages of the source.

Legend:
[1] = ref Reddy et al., 2008; cited from earlier work
HBV [2] = test: HBV antiviral assay in HepG2.2.15 cells; assay type: cell-based, hepatitis B virus; conditions: for effect of addition of 10uM mevalonate on anti-HBV effect: 10uM mevalonate added
[3] = Cytotoxicity by neutral red dye uptake in HepG2.2.15 cultures; assay type: cell-based; conditions: human, HepG2.2.15 cells
HepG2.2.15 = test: as above; assay type: cell-based; conditions: Table 2; monotherapy; neutral red uptake 24 hours after last treatment
HBV [4] = conditions: cited from earlier work; for anti-HBV activity: unpublished results
HBV surface antigen = conditions: Hep3B cell line with integrated S gene coding region; ref Lin et al., 2003; cited from earlier work
[5] = Hepatitis B virus, HepG2.2.15, Table 2 (separate experiment), monotherapy
[6] = Table 2 (separate experiment), monotherapy

Nc1ncnc2c1ncn2CCOCP(=O)(O)O [ADV, adefovir]
liver/serum ratios [1]: 0.38

Nc1ccn([C@@H]2CS[C@H](CO)O2)c(=O)n1 [LMV, lamivudine]
effect of addition of 10uM mevalonate on anti-HBV effect (HBV [2]): did not affect the anti-HBV effectiveness; also recorded: nor did it reduce the anti-HBV effectiveness
EC50 (HBV [2]; [5]): 0.048 ± 0.005 µM
EC90 (HBV [2]; [5]): 0.146 ± 0.017 µM
CC50 at 9 days [3]: 2320 ± 102 µM

CC(O)(CCO)CC(=O)O (stereo not drawn) [Mevalonate]
EC50 (HBV [2]; [6]): > 10 µM
EC90 (HBV [2]; [6]): > 10 µM
anti-HBV effect (HBV [2]; monotherapy): did not display an anti-HBV effect
CC50 (HepG2.2.15): > 10 µM

CCC(C)(C)C(=O)O[C@H]1C[C@@H](C)C=C2C=C[C@H](C)[C@H](CC[C@@H]3C[C@@H](O)CC(=O)O3)[C@H]21 [SIM, simvastatin]
effect of addition of 10uM mevalonate on anti-HBV effect (HBV [2]): abolished the anti-HBV effect; also recorded: abolished the anti-HBV effectiveness
EC50 (HBV [2]; [5]): 2.8 ± 0.3 µM
EC90 (HBV [2]; [5]): 8.1 ± 0.7 µM
ED90 (HBV [2]; SIM alone, cell culture): 8.6 µM
CC50 at 9 days [3]: > 300 µM

CC(C)n1c(/C=C/C(O)CC(O)CC(=O)O)c(-c2ccc(F)cc2)c2ccccc21 (stereo not drawn) [fluvastatin]
anti-HBV activity (HBV [4]; ref Korba): unable to make other statins work against HBV

CC[C@H](C)C(=O)O[C@H]1C[C@@H](C)C=C2C=C[C@H](C)[C@H](CC[C@@H]3C[C@@H](O)CC(=O)O3)[C@H]21 [lovastatin]
in vitro production of surface antigen inhibited (HBV surface antigen): 60%
anti-HBV activity (HBV virions in cell culture) (HBV [4]; ref Lin et al., 2003): unable to make other statins work against HBV; also recorded: could not demonstrate reduction of HBV virions

CC[C@H](C)C(=O)O[C@H]1C[C@H](O)C=C2C=C[C@H](C)[C@H](CC[C@@H](O)C[C@@H](O)CC(=O)O)[C@H]21 [pravastatin]
anti-HBV activity (HBV [4]; ref Bader): unable to make other statins work against HBV
